Read-outs that look alike come from different tables or passages of the source.
Columns and labels:
Type in all cases: physicochemical
[1] = Accelerated stability (ICH), 40° C./75% RH; settings: for Appearance / Assay (anhydrous w/w %) / Chiral purity (area %) / Individual related substance (area %, w/w), RRT 0.46 / Individual related substance (area %, w/w), RRT 0.64 / Individual related substance (area %, w/w), RRT 1.26 / Purity (area %) / Total related substances (area %, w/w) / Water content (%) / XRPD: 40° C./75% RH
Method: Polymorph Form A was manufactured under Good Manufacturing Practices (GMP)-compliant conditions at a scale of 1.26 kg. The container closure for the batch consisted of double-lined low density polyethylene bags placed inside fiberboard drums, and the batch was on ICH stability under storage conditions of 25° C./60% relative humidity (RH) and 40° C./75% RH. Long-term stability data through the 36-month interval and accelerated stability data through the 6-month interval are shown in Tables 2 and 3.
Stability samples were tested according to the protocol (Table 5) and to the same specification as the drug substance. The available stability data for samples stored at 25° C./60% RH and 40° C./75% RH are summarized.

[2] = Log P/D by shake-flask method (1-octanol/buffer, HPLC); settings: for logD: 1-octanol/buffer
Method: First, a sample stock solution of Polymorph Form A (100 mmol/L in DMSO) was prepared. 20 μL each of sample DMSO stock solutions was added into 4 ml-vials, then dispensed into 990 μL of 1-octanol-saturated buffer at varied pH and 990 μL of buffer-saturated 1-octanol, vortexed for 3 min and shaken for 1 hr at […], then centrifuged at 2500 rpm for 2 min to get rid of bubbles in the solutions. Finally, buffer-layer sample and 1-octanol-layer sample were separated, and then buffer-layer sample and 1-octanol-layer sample was injected into HPLC, integrated the chromatography and calculated the sample concentrations ratio in both buffer and 1-octanol phase. The Log P/D result was obtained by following equation: […]
The Log P/D value of Polymorph Form A was acquired by shake-flask method using a HPLC system. Since the concentrations of Polymorph Form A in buffer layer are too low to analyze, based on the comparison of blank and standard solution (S/N=5), 0.05 μmol/L was used in buffer layer to calculate Log D.

[3] = Hygroscopicity (DVS) of Polymorph Form A
Method: Details of DVS method used in the tests are summarized below: • Test the sorption/desorption profile of testing compound at 25° C. under 0-90% relative humidity. 3.3 HPLC Method
About 10 mg Polymorph Form A was weighed and the sorption/desorption profiles were set at 25° C. under 0-90% relative humidity. The compound after testing was also subjected to an XRPD test to determine if any polymorph changes exist after exposure to a cycle of humidity change.

[4] = 25° C., Cycle 1, target 0.0 % P/Po
[5] = 25° C., Cycle 1, target 10.0 % P/Po
[6] = 25° C., Cycle 1, target 20.0 % P/Po
[7] = 25° C., Cycle 1, target 30.0 % P/Po
[8] = 25° C., Cycle 1, target 40.0 % P/Po
[9] = 25° C., Cycle 1, target 50.0 % P/Po
[10] = 25° C., Cycle 1, target 60.0 % P/Po
[11] = 25° C., Cycle 1, target 70.0 % P/Po
[12] = 25° C., Cycle 1, target 80.0 % P/Po
[13] = 25° C., Cycle 1, target 90.0 % P/Po

SMILES: Cc1cc(C)c(-c2ccc(NC(=O)[C@H](Cc3ccc(C(=O)NCCS(=O)(=O)[O-])cc3)c3ccc(-c4ccc(C(C)(C)C)cc4)cc3)cc2)c(C)c1.[Na+] [Polymorph Form A, Sodium (R)-2-(4-(2-(4′-(tert-butyl)-[1,1′-biphenyl]-4-yl)-3-oxo-3-((2′,4′,6′-trimethyl-[1,1′-biphenyl]-4-yl)amino)propyl)benzamido)ethane-1-sulfonate]
- water content ([1]; 40° C./75% RH after the 2-month interval, stabilized level): approximately 10%
- Appearance ([1]; 0 months): White
- Assay (anhydrous w/w %) ([1]; 0 months): 101.3 w/w %
- Chiral purity (area %) ([1]; 0 months): 99.9 area %
- Individual related substance (area %, w/w), RRT 0.46 ([1]; 0 months): 0.08 area %, w/w
- Individual related substance (area %, w/w), RRT 0.64 ([1]; 0 months): 0.12 area %, w/w
- Individual related substance (area %, w/w), RRT 1.26 ([1]; 0 months): 0.05 area %, w/w
- Purity (area %) ([1]; 0 months): 99.8 area %
- Total related substances (area %, w/w) ([1]; 0 months): 0.25 area %, w/w
- Water content (%) ([1]; 0 months): 2.1%
- Appearance ([1]; 1 month): White
- Assay (anhydrous w/w %) ([1]; 1 month): 102.0 w/w %
- Chiral purity (area %) ([1]; 1 month): 99.8 area %
- Individual related substance (area %, w/w), RRT 0.46 ([1]; 1 month): 0.08 area %, w/w
- Individual related substance (area %, w/w), RRT 0.64 ([1]; 1 month): 0.11 area %, w/w
- Individual related substance (area %, w/w), RRT 1.26 ([1]; 1 month): 0.05 area %, w/w
- Purity (area %) ([1]; 1 month): 99.8 area %
- Total related substances (area %, w/w) ([1]; 1 month): 0.24 area %, w/w
- Water content (%) ([1]; 1 month): 8.1%
- Appearance ([1]; 2 months): White
- Assay (anhydrous w/w %) ([1]; 2 months): 103.4 w/w %
- Chiral purity (area %) ([1]; 2 months): 99.8 area %
- Individual related substance (area %, w/w), RRT 0.46 ([1]; 2 months): 0.08 area %, w/w
- Individual related substance (area %, w/w), RRT 0.64 ([1]; 2 months): 0.12 area %, w/w
- Individual related substance (area %, w/w), RRT 1.26 ([1]; 2 months): 0.06 area %, w/w
- Purity (area %) ([1]; 2 months): 99.7 area %
- Total related substances (area %, w/w) ([1]; 2 months): 0.26 area %, w/w
- Water content (%) ([1]; 2 months): 9.8%
- Appearance ([1]; 3 months): White
- Assay (anhydrous w/w %) ([1]; 3 months): 103.4 w/w %
- Chiral purity (area %) ([1]; 3 months): 100.0 area %
- Individual related substance (area %, w/w), RRT 0.46 ([1]; 3 months): 0.08 area %, w/w
- Individual related substance (area %, w/w), RRT 0.64 ([1]; 3 months): 0.11 area %, w/w
- Individual related substance (area %, w/w), RRT 1.26 ([1]; 3 months): 0.05 area %, w/w
- Purity (area %) ([1]; 3 months): 99.8 area %
- Total related substances (area %, w/w) ([1]; 3 months): 0.24 area %, w/w
- Water content (%) ([1]; 3 months): 10.0%
- XRPD ([1]; 3 months): Same form
- Appearance ([1]; 6 months): White
- Assay (anhydrous w/w %) ([1]; 6 months): 103.7 w/w %
- Chiral purity (area %) ([1]; 6 months): 100.0 area %
- Individual related substance (area %, w/w), RRT 0.46 ([1]; 6 months): 0.08 area %, w/w
- Individual related substance (area %, w/w), RRT 0.64 ([1]; 6 months): 0.12 area %, w/w
- Individual related substance (area %, w/w), RRT 1.26 ([1]; 6 months): 0.05 area %, w/w
- Purity (area %) ([1]; 6 months): 99.8 area %
- Total related substances (area %, w/w) ([1]; 6 months): 0.25 area %, w/w
- Water content (%) ([1]; 6 months): 10.0%
- XRPD ([1]; 6 months): Same form
- logD ([2]; pH 1.5, read-out: Log D Rep.1): > 4.32
- logD ([2]; pH 7.4, read-out: Log D Rep.1): > 4.32
- logD ([2]; pH 1.0, read-out: Log D Rep.1): > 4.32
- logD ([2]; pH 2.0, read-out: Log D Rep.1): > 4.32
- logD ([2]; pH 3.0, read-out: Log D Rep.1): > 4.32
- logD ([2]; pH 4.0, read-out: Log D Rep.1): > 4.32
- logD ([2]; pH 11.0, read-out: Log D Rep.1): > 4.32
- logD ([2]; pH range of 1.0 to 11.0, read-out: Log D values): > 4.32
- Log D Average ([2]; pH 1.0): >4.32
- Log D Rep.2 ([2]; pH 1.0): >4.32
- Log D Average ([2]; pH 1.5): >4.32
- Log D Rep.2 ([2]; pH 1.5): >4.32
- Log D Average ([2]; pH 2.0): >4.32
- Log D Rep.2 ([2]; pH 2.0): >4.32
- Log D Average ([2]; pH 3.0): >4.32
- Log D Rep.2 ([2]; pH 3.0): >4.32
- Log D Average ([2]; pH 4.0): >4.32
- Log D Rep.2 ([2]; pH 4.0): >4.32
- Log D Average ([2]; pH 7.4): >4.32
- Log D Rep.2 ([2]; pH 7.4): >4.32
- Log D Average ([2]; pH 11.0): >4.32
- Log D Rep.2 ([2]; pH 11.0): >4.32
- Change in Mass (%)-ref, Desorption [3, 4]: 0.20%
- Change in Mass (%)-ref, Sorption [3, 4]: 0.00%
- Change in Mass (%)-ref, Desorption [3, 5]: 1.64%
- Change in Mass (%)-ref, Hysteresis [3, 5]: 0.29%
- Change in Mass (%)-ref, Sorption [3, 5]: 1.35%
- Change in Mass (%)-ref, Desorption [3, 6]: 2.73%
- Change in Mass (%)-ref, Hysteresis [3, 6]: 0.39%
- Change in Mass (%)-ref, Sorption [3, 6]: 2.34%
- Change in Mass (%)-ref, Desorption [3, 7]: 4.08%
- Change in Mass (%)-ref, Hysteresis [3, 7]: 0.50%
- Change in Mass (%)-ref, Sorption [3, 7]: 3.58%
- Change in Mass (%)-ref, Desorption [3, 8]: 5.48%
- Change in Mass (%)-ref, Hysteresis [3, 8]: 0.63%
- Change in Mass (%)-ref, Sorption [3, 8]: 4.85%
- Change in Mass (%)-ref, Desorption [3, 9]: 6.98%
- Change in Mass (%)-ref, Hysteresis [3, 9]: 0.87%
- Change in Mass (%)-ref, Sorption [3, 9]: 6.11%
- Change in Mass (%)-ref, Desorption [3, 10]: 8.08%
- Change in Mass (%)-ref, Hysteresis [3, 10]: 0.39%
- Change in Mass (%)-ref, Sorption [3, 10]: 7.69%
- Change in Mass (%)-ref, Desorption [3, 11]: 13.12%
- Change in Mass (%)-ref, Hysteresis [3, 11]: 3.90%
- Change in Mass (%)-ref, Sorption [3, 11]: 9.21%
- Change in Mass (%)-ref, Desorption [3, 12]: 16.12%
- Change in Mass (%)-ref, Hysteresis [3, 12]: 1.04%
- Change in Mass (%)-ref, Sorption [3, 12]: 15.09%
- Change in Mass (%)-ref, Desorption [3, 13]: 20.08%
- Change in Mass (%)-ref, Sorption [3, 13]: 20.08%
- Hygroscopicity classification ([3]; DVS, 0 to 90% RH, 25° C.): very hygroscopic
- XRPD after hygroscopicity test ([3]; after a cycle of humidity change): no change
- weight gain ([3]; from 0 to 90% RH, 25° C.): 20.08%

Reference: patent US12208071B2, “Glucagon receptor antagonists” (LIGAND PHARMACEUTICALS INCORPORATED, priority 2018, dated 2025)
